Experimental data from publication PMC10066322 (Scientific Reports, 2023).

Key:
PARN [1] = target: T1, PARN (Homo sapiens, UniProt O95453); settings: cited from earlier work
T1 construct: expression of the C-terminal truncated protein (1-430 aa of PARN) was soluble; His tag (from the pCold I vector); made in house; host or cells: E. coli Rosetta 2 DE
T1 sequence (O95453 1-430): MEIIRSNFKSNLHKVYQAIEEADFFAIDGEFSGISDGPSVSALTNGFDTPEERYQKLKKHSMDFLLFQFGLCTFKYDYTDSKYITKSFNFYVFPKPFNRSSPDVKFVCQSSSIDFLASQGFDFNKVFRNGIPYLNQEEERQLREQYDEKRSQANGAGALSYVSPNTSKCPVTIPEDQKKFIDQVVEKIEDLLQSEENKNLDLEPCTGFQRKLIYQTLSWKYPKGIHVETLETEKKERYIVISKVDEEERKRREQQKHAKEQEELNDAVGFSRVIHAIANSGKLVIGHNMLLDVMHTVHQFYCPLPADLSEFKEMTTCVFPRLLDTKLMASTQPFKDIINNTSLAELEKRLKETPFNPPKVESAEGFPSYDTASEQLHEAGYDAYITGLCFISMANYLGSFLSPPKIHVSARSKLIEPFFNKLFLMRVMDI

[2] = system: PARN activity in Hela cells; test: miR-21-5p levels in Hela cells by northern blotting (PARN inhibition in cells); assay type: cell-based, human; settings: 10 µM, 2 days
Description: 48 h after transfection/drug treatment, cells were collected for either RNA or protein analysis.
Total RNA was extracted from cell lysates using TriZol as per manufacturer’s protocol and DNAse treated. After quantification on Nanodrop, total RNA was separated on an acrylamide 7 M Urea gel. RNA was transferred to a nylon membrane (Nytran SPC, GE Healthcare) using semiwet transfer. After UV/EDC crosslinking, the blot was pre-hybridized and hybridized in PerfectHyb Plus Hybridization Buffer (Sigma Aldrich) at 42 °C. Northern probes have been previously described[11],[48]. After hybridization and washing in 2 × SSC 0.1% SDS wash buffer, blots were exposed to a cassette and imaged on a Typhoon FLA 9500 Phosphoimager. Band intensities were quantified using ImageJ and normalized to the U1 levels under each condition.

PARN [3] = target: T1, PARN; test: High-throughput screening fluorescence assay with 8-point IC50 curves; assay type: biochemical; settings: high-throughput screening hits; 8 points 1:3 dilution, top 100 µM
Description: To identify PARN inhibitors in a high-throughput manner, 24,000 compounds from the Enamine kinase library were tested in a HTS utilizing the fluorescence assay (Fig. 3a).
2 µL of protein (100 nM final concentration) (stock protein was diluted in 1× lysis buffer (HEPES KOH, pH 7.4, 30 mM, KOAc 100 mM, and Mg(OAc)2 2 mM) was added to wells using offline Multidrop Combi nL. The reaction was pre-incubated with 12.5 nL of Sygnature library (Enamine kinase library (HBL-24) (31.25 μM) for 15 min before 2 µL of RNA (10 µM) was added (DMSO was added to control wells using Echo 655). The reaction was incubated at 22 °C for 20 min in Cytomat automatic incubator. After the incubation, the reaction was quenched by adding 4 µL of quencher solution (30 µM of 3′-BHQ labeled quench DNA in 1% SDS) using Multidrop Combi nL. The quenched reaction was incubated at room temperature for 10 min and fluorescence was measured using PHERAstar FSX (λ485/520). For the counter screen, no protein was added to the reaction.
Curves were fitted within Genedata using SmartFit algorithm.

PARN1-430 [4] = target: T2, PARN1-430 (Homo sapiens, UniProt O95453); test: Gel assay of poly(A) RNA shortening by PARN1-430; assay type: biochemical
T2 construct: expression of the C-terminal truncated protein (1-430 aa of PARN) was soluble; His tag (from the pCold I vector); made in house; host or cells: E. coli Rosetta 2 DE
T2 sequence (O95453 1-430): T1 sequence (O95453 1-430)
Description: PARN1-430 was incubated with a fluorescently labeled RNA with a CCUUUCC sequence followed by a 9 nucleotide-long poly(A) tail and the reaction product was visualized on denaturing acrylamide gels. We observed that PARN removed the 3′ oligo(A) tail from the RNA substrate (Fig. 2c and d). […] Moreover, we observed that PARN is inhibited when treated with adenosine monophosphate (AMP), as has been reported previously.
1 µL of protein (73 nM as final concentration) (stock protein is diluted in 1× lysis buffer (HEPES KOH, pH 7.4, 30 mM, KOAc 100 mM, and Mg(Oac)2 2 mM) was added to 4 µL of 2.5× reaction buffer (Tris–HCl pH 7.4, 10 mM, KCl 50 mM, MgCl2 5 mM). If drug was added, reaction was pre-incubated with drugs for 10 min before 5 µL of RNA (5 µM as final concentration) was added. The reaction was incubated at 37 °C for 20 min. After the incubation, the reaction was either diluted with 2× loading buffer and heated to 95 °C for 5 min for gel or quenched by adding 10 µL of quencher solution (30 µM of 3′-BHQ labeled quench DNA in 1% SDS). Quenched reaction was incubated at room temperature for 10–60 min and fluorescence was measured using Fluorescein wavelength measurement.
15% TBE-Urea gel (Thermo Fisher Scientific) was prerun at 20W for 30 min. RNAs from the reaction was loaded into 15% TBE gels and run at 300 V for 35 min. The gel was visualized using iBright (Invitrogen FL1500).

PARN1-430 [5] = target: T2, PARN1-430; test: Inhibition fluorescence assay (FAM-RNA / BHQ quencher deadenylase assay); assay type: biochemical; settings: for PARN inhibitor in vitro: computational docking compounds, fluorescence assay and gels, PARN1-430 pretreated with drug 10 min
Description: To easily screen compounds for inhibition of PARN activity, we developed an assay in which fluorescence was used as the readout for monitoring PARN1-430’s activity (Fig. 3a). This assay was modeled on a similar assay developed for Caf1/CNOT7 deadenylase. In this assay, PARN1-430 was incubated with a 5′-fluorescently labeled oligoadenylated RNA. In the absence of deadenylation, this substrate RNA can effectively hybridize to a complementary DNA oligonucleotide with a quencher on its 3′ end leading to a loss of fluorescence (Fig. 3a). When the RNA substrate is deadenylated, the quenching oligonucleotide is no longer able to stably hybridize leading to an increase in fluorescence in the reaction.
Figure 3 Developing a fluorescence assay for PARN inhibition. (a) Cartoon depicting the inhibition fluorescence assay. Schematic diagram of the fluorescence-based deadenylase assay. The assay is based on a 5′ FAM-labelled RNA oligonucleotide substrate. After incubation of the substrate in the presence of PARN1-430, the reaction is stopped and a 3′ BHQ-labelled DNA oligonucleotide probe complementary to the RNA substrate is added. The fluorescence of intact substrate is quenched upon probe hybridization because of the proximity of the BHQ […]. In contrast, the BHQ-labelled probe cannot hybridize to the FAM-labelled reaction product allowing detection of FAM fluorescence. […] 2-way ANOVA, multiple comparisons test, average ± SD, n = 3 replicates. *P < 0.05, **P < 0.005, ***P < 0.001, ****P < 0.0001, n.s. was not indicated. […] Dotted-line represents RNA and RNA + Quencher data. One-way ANOVA, multiple comparisons test, average ± SD, n ≥ 3 replicates. *P < 0.05, **P < 0.005, ***P < 0.001, ****P < 0.0001, n.s. was not indicated. (d) PARN1-430 and PARNmut enzymatic activity measured at different time points. […] Dotted-line represents RNA and RNA + Quencher data. 2-way ANOVA, multiple comparisons test, average ± SD, n = 3 replicates. *P < 0.05, **P < 0.005, ***P < 0.001, ****P < 0.0001, n.s. was not indicated.
Quenched reaction was incubated at room temperature for 10–60 min and fluorescence was measured using Fluorescein wavelength measurement.

PARN inhibitor in vitro (PARN1-430 [5]) | Molecule | Ki (PARN [1]) | PARN inhibitor in vitro (PARN [1]) | further results
– | O=C(Nc1ncnc2c1ncn2[C@@H]1O[C@H](CO)C[C@H](F)[C@H]1O)c1ccccc1 [A6, 1-(3′,4′, dideoxy-3′-fluoro-β-d-glucopyranosyl)-N4-benzoyl adenine] | 210 ± 45 µM | Yes | –
– | NC[C@H]1O[C@H](O[C@H]2[C@H](O)[C@@H](O[C@H]3O[C@H](CO)[C@@H](O)[C@H](N)[C@H]3O)[C@H](N)C[C@@H]2N)[C@H](N)[C@@H](O)[C@@H]1O [Kanamycin B] | 7.3 ± 0.4 µM | Yes | –
– | O=C(Nc1ncnc2c1ncn2[C@@H]1O[C@H](CO)C[C@H](F)[C@H]1O)c1ccccc1 [TH18] | – | – | PARN inhibitor in cells [2]: No; IC50 (PARN [3]): 0.2 µM; inhibition of PARN on gels (PARN1-430 [4]; 20 μM compound): could inhibit PARN at 20 μM, except for TH18
– | NC[C@@H]1O[C@H](O[C@H]2[C@@H](O)[C@H](O[C@@H]3[C@@H](O)[C@H](N)C[C@H](N)[C@H]3O[C@H]3O[C@H](CO)[C@@H](O)C[C@H]3N)O[C@@H]2CO)[C@H](N)[C@@H](O)[C@@H]1O[C@H]1O[C@H](CO)[C@@H](O)[C@H](O)[C@@H]1O [Lividomycin] | 18.7 ± 2.8 µM | Yes | –
– | O=c1ccn([C@@H]2O[C@H](CO)[C@@H](O)[C@H](F)[C@H]2O)c(=O)[nH]1 [U1, 1-(3′-deoxy-3′-fluoro-β-d-glucopyranosyl) uracil] | 19 ± 5 µM | Yes | –
– | O=C(Nc1ncnc2c1ncn2[C@@H]1O[C@H](CO)C[C@H](F)[C@H]1O)c1ccccc1 [A2, 9-(3′,4′, dideoxy-3′-fluoro-β-d-glucopyranosyl)-N6-benzoyl adenine] | 510 ± 52 µM | Yes | –
No | CCn1nc(C2CCN(C(=O)CCO)CC2)nc1-c1cnc(N)c(-c2nnc(C(C)(C)C)o2)n1 [AZD8835] | – | – | –
– | NC[C@@H]1O[C@H](O[C@H]2[C@@H](O)[C@H](O[C@@H]3[C@@H](O)[C@H](N)C[C@H](N)[C@H]3O[C@H]3O[C@H](CN)[C@@H](O)[C@H](O)[C@H]3N)O[C@@H]2CO)[C@H](N)[C@@H](O)[C@@H]1O [Neomycin B] | 0.4 ± 0.1 µM | Yes | –
– | NC[C@H]1O[C@H](O[C@H]2[C@H](O)[C@@H](O[C@H]3O[C@H](CO)[C@@H](O)[C@H](N)[C@H]3O)[C@H](N)C[C@@H]2N)[C@H](N)C[C@@H]1O [Tobramycin] | 7.1 ± 0.2 µM | Yes | –
No | Nc1ncnc2c1ncn2[C@@H]1O[C@H](CO)[C@@H](O)[C@@H]1O [Vidarabine] | – | – | –
– | NC[C@@H]1O[C@H](O[C@H]2[C@@H](O)[C@H](O[C@@H]3[C@@H](O)[C@H](N)C[C@H](N)[C@H]3O[C@H]3O[C@H](CO)[C@@H](O)[C@H](O)[C@H]3N)O[C@@H]2CO)[C@H](N)[C@@H](O)[C@@H]1O [Paromomycin] | 17.3 ± 3.5 µM | Yes | –
– | Kanamycin A | – | Yes | –
– | O=c1[nH]c(=O)n([C@@H]2O[C@H](CO)[C@@H](O)[C@H](F)[C@H]2O)cc1F [FU1, 1-(3′-deoxy-3′-fluoro-β-d-glucopyranosyl) 5-fluorouracil] | 98 ± 12 µM | Yes | –
Yes | Nc1nc(Cl)nc2c1ncn2[C@H]1C[C@H](O)[C@@H](CO)O1 [Cladribine] | – | – | –
No | Nc1nc(Cl)nc2c1ncn2[C@@H]1O[C@H](CO)[C@@H](O)[C@@H]1F [Clofarabine] | – | – | –
– | OC[C@H]1OC(O)[C@H](O)[C@@H](F)[C@@H]1O (stereo partly shown) [B6] | – | Yes | –
Yes | CNC(=O)c1cnn(-c2nc(N)c3ncn([C@@H]4O[C@H](CO)[C@@H](O)[C@H]4O)c3n2)c1 [Regadenoson] | – | – | –
No | NC(=O)c1ncn([C@@H]2O[C@H](CO)[C@@H](O)[C@H]2O)c1N [AICAR] | – | – | –
No | Nc1ncnc2c1ncn2[C@H]1O[C@@H](CO)[C@H](O)[C@@H]1O [L-adenosine] | – | – | –
– | Cc1cn([C@@H]2O[C@H](CO)[C@@H](O)[C@H](F)[C@H]2O)c(=O)[nH]c1=O [T1, 1-(3′-deoxy-3′-fluoro-β-d-glucopyranosyl) thymine] | 135 ± 18 µM | Yes | –
No | Nc1cccc(-c2cc3c(Oc4cccc(O)c4)ncnc3[nH]2)c1 [TWS119] | – | – | –
Yes | COc1nc(N)c2ncn([C@@H]3O[C@H](CO)[C@@H](O)[C@H]3O)c2n1 [Spongosine] | – | – | –
– | Nc1ncnc2c1ncn2[C@@H]1O[C@H](COP(=O)(O)O)[C@@H](O)[C@H]1O [AMP, adenosine monophosphate] | – | – | concentration at which PARN1-430 is inhibited (PARN [1]): > 1 mM; inhibition of PARN1-430, fluorescence assay (PARN1-430 [5]; 2.5 mM AMP, PARN1-430 73 nM): effectively inhibited; inhibitory effect on PARN1-430, gel assay (PARN1-430 [4]): inhibited

Molecule | PARN inhibitor in vitro (PARN1-430 [5]) | Ki (PARN [1]) | PARN inhibitor in vitro (PARN [1]) | further results
Nc1ncnc2c1c(I)cn2C1OC(CO)C(O)C1O (stereo not shown) [5-ITU, 5-Iodotubercidin] | No | – | – | –
Nc1ncnc2c1c(Br)cn2[C@@H]1O[C@H](CO)[C@@H](O)[C@H]1O [5-bromotubercidine] | No | – | – | –
Nc1ncnc2c1ccn2[C@@H]1O[C@H](CO)[C@@H](O)[C@H]1O [Tubercidine] | Yes | – | – | –
